The values below come from patent publication US12187717B2, “Compound and use thereof in treating autoimmune diseases” (PARENCHYMA BIOTECH INC., priority 2022, dated 2025).

The test system of experiment [1] is graft-versus-host disease. As to the kind of experiment: Graft-versus-host disease model (B6->BDF1). The class given is in vivo, BDF1 mice. To be noted: 10 mg/kg oral daily, 3rd to 14th days. As to the method: The spleen of C57BL/6 mice (8 to 12 weeks old, female, 18±3 g) was excised, pulverized by adding RPMI medium, and then passed through a 40 μm cell strainer (BD Falcon), thereby obtaining a single cell suspension. The single cell suspension was centrifuged (1200 rpm, 5 minutes), and after discarding the supematant, 1 ml of ACK (ammonium chloride/potassium bicarbonate) lysis buffer (0.15 M NH4Cl, 1 mM KHCO3, 0.1 mM Na2 EDTA) was added, followed by stirring for 1 minute and then washing the same with RPMI medium. After centrifugation, the cell suspension was reacted on mouse CD90.2 microbeads (Miltenyi Biotec, Cat No. 130-121-278) at 4° C. for 20 minutes. After complementation of the reaction, the cell suspension was centrifuged, washed with 10 ml of autoMACS® Running Buffer (Miltenyi Biotec, Cat No. 130-091-221), and then resuspended with 3 ml of autoMACS® Running Buffer. Then, CD90.2^+ T cells were obtained from the cell suspension using Auto MACS pro (Miltenyi Biotec) (positive selection). […]
The graft-versus-host disease severity index was evaluated at an interval of 3 to 4 days by visual observation in a severity index system that was classified into a total of 10 points with 0 to 2 points for each item of weight reduction, hair condition, posture, activity and skin change.

In experiment [2] the test system is Foxp3-expressing regulatory T cells (Treg). The experiment can be described thus: Production of Foxp3-expressing regulatory T cells from naive CD4 T cells (flow cytometry). To be noted: 3 days. It is filed as cell-based, C57BL/6 mice. As to the method:
The spleen of C57BL/6 mice (8 to 12 weeks old, female) was excised, pulverized by adding RPMI medium, and then passed through a 40 μm cell strainer (BD Falcon), thereby obtaining a single cell suspension. The single cell suspension was centrifuged (1200 rpm, 5 minutes), and after discarding the supernatant, 1 ml of ACK lysis buffer was added, followed by stirring for 1 minute and then washing the same with RPMI medium. After the single cell suspension was centrifuged, T-cells were separated using a Mouse CD4 Naive T cell Enrichment Kit (Invitrogen). The separated T-cells were prepared by resuspending them in RPMI-fetal bovine serum (FBS) 10%+2-ME (mercaptoethanol) medium at 1×10^6/ml. For T-cell activation, 5 μg/ml anti-CD3 (eBioscience™) was dispensed by 100 μl onto a 96-well plate, reacted in a cell incubator (37° C., 5% CO2 incubator) for 4 hours, and washed with phosphate buffered saline to prepare the plate. The T-cells were dispensed by 200 μl onto the prepared plate, and each well was treated with 2 μg/ml of anti-CD28 (eBioscience™), 2 ng/ml of TGFβ-1 (R&D systems), and 100 U/ml of IL-2. Each 5 μl of Compounds 6 and 9 at a concentration of 2.5 μM diluted in RPMI-fetal bovine serum 10%+2-ME medium was used for treatment, followed by culturing the same in a cell incubator (37° C., 5% CO2 incubator) for 3 days. […]
In order to confirm the expression of Foxp3 protein, the recovered cells were placed in a 5 ml FACS tube (BD Falcon) and washed with 1 ml of phosphate buffered saline. […] The cells were washed twice with the Permeabilization buffer, suspended in 0.3 ml of FACS buffer, and measured by flow cytometry.
The promotion effects of Compound 6 and Comparative Example 1 on the production of “FoxP3-expressing regulatory T cells,” which play an important role in maintaining immune tolerance, were compared (FIG. 24). […] After 3 days, in order to confirm the effects of production of the regulatory T cells, the cultured cells were recovered and Foxp3 protein expression was measured in the same manner as in FIG. 4.

For `O=C(Cc1c[nH]c2ccc(Cl)cc12)Nc1nc2ccc(N3CCOCC3)cc2s1` [Compound 6, 2-(5-chloro-1H-indol-3-yl)-N-(6-morpholinobenzo[d]thiazol-2-yl)acetamide], the “colon tissue inflammatory pathology index” value in experiment [1] is on record as “significantly decreased”. The “severity index of graft-versus-host disease” value in experiment [1] (total of 10 points, solvent control 8±1) was determined as 2.2±1.2. In addition, the “production of Foxp3-expressing regulatory T cells” value in experiment [2] (2.5 μM and 5 μM, compared to Comparative Example 1) was “significantly increased”; in experiment [2] (2.5 μM, compared to Vehicle), “markedly increased”.
